Activity calls are given as the source filed them. No rule for the calls is given here.

The subject of this series is CCRIS mutagenicity, Ames/micronucleus/aberration tests. The series is described as follows: CCRIS mutagenicity studies.
Setting [1] is: Test System: AMES SALMONELLA TYPHIMURIUM, Strain/Indicator: TA98, Metabolic Activation: NONE, Method: STANDARD PLATE.
The mark [2] stands for this setting: Test System: AMES SALMONELLA TYPHIMURIUM, Strain/Indicator: TA97, Metabolic Activation: NONE, Method: PREINCUBATION
Setting [3] is: Test System: AMES SALMONELLA TYPHIMURIUM, Strain/Indicator: TA98, Metabolic Activation: NONE, Method: PREINCUBATION
Where [4] appears, read: Test System: AMES SALMONELLA TYPHIMURIUM, Strain/Indicator: TA100, Metabolic Activation: NONE, Method: PREINCUBATION

For the molecule `Cc1cc2c(c3ccc4c(O)c(O)ccc4c13)CCC2=O`, the mutagenic call was “inactive; negative” (Test System: AMES SALMONELLA TYPHIMURIUM, Strain/Indicator: TA100, Metabolic Activation: RAT, LIVER, MICROSOMES, 15,16-DIHYDRO-11-METHYL-17(H)-CYCLOPENTA[A] PHENANTHREN-17-ONE, Method: STANDARD PLATE); “active; positive” (Test System: AMES SALMONELLA TYPHIMURIUM, Strain/Indicator: TA100, Metabolic Activation: RAT, LIVER, MICROSOMES, BENZO[A]PYRENE, Method: STANDARD PLATE); “inactive; negative” (Test System: AMES SALMONELLA TYPHIMURIUM, Strain/Indicator: TA100, Metabolic Activation: RAT, LIVER, MICROSOMES, CLOFIBRATE, Method: STANDARD PLATE); “inactive; negative” (Test System: AMES SALMONELLA TYPHIMURIUM, Strain/Indicator: TA100, Metabolic Activation: RAT, LIVER, MICROSOMES, DEXAMETHASONE, Method: STANDARD PLATE); “inactive; negative” (Test System: AMES SALMONELLA TYPHIMURIUM, Strain/Indicator: TA100, Metabolic Activation: RAT, LIVER, MICROSOMES, ISONIAZID, Method: STANDARD PLATE); “inactive; negative” (Test System: AMES SALMONELLA TYPHIMURIUM, Strain/Indicator: TA100, Metabolic Activation: RAT, LIVER, MICROSOMES, PHENOBARBITONE, Method: STANDARD PLATE). For the same molecule, the mutagenic call (Test System: AMES SALMONELLA TYPHIMURIUM, Strain/Indicator: TA100, Metabolic Activation: RAT, LIVER, MICROSOMES, Method: STANDARD PLATE) is “inactive; negative”.

For the molecule `CC(=O)O[C@@H]1C(=O)O[C@H]2[C@@H]1OC(=O)[C@@H]2OC(C)=O`, the mutagenic call under setting [1] is “inactive; negative”; the mutagenic call (Test System: AMES SALMONELLA TYPHIMURIUM, Strain/Indicator: TA98, Metabolic Activation: S-9, Method: STANDARD PLATE) is “inactive; negative”; the mutagenic call (Test System: AMES SALMONELLA TYPHIMURIUM, Strain/Indicator: TA100, Metabolic Activation: NONE, Method: STANDARD PLATE) was “inactive; negative”; the mutagenic call (Test System: AMES SALMONELLA TYPHIMURIUM, Strain/Indicator: TA100, Metabolic Activation: S-9, Method: STANDARD PLATE) is “inactive; negative”; the mutagenic call (Test System: AMES SALMONELLA TYPHIMURIUM, Strain/Indicator: TA1537, Metabolic Activation: S-9, Method: STANDARD PLATE) was “inactive; negative”; the mutagenic call (Test System: E. COLI, Strain/Indicator: WP2 (HCR), Metabolic Activation: NONE, Method: STANDARD PLATE) is “inactive; negative”. The mutagenic call (Test System: E. COLI, Strain/Indicator: WP2 (HCR), Metabolic Activation: S-9, Method: STANDARD PLATE) was “inactive; negative”.

As for `O=[N+]([O-])c1cc([N+](=O)[O-])c2cccc3c2c1-c1ccccc1-3`, the mutagenic call is, setting by setting: (Test System: AMES SALMONELLA TYPHIMURIUM, Strain/Indicator: TA98(1,8-DNP6), Metabolic Activation: NONE, Method: STANDARD PLATE) “active; positive”; (Test System: AMES SALMONELLA TYPHIMURIUM, Strain/Indicator: TA98(NR), Metabolic Activation: NONE, Method: STANDARD PLATE) “active; positive”; under setting [1], “active; positive”.

As to `CCCCCCC(CCCC)COc1ccc(-c2ccc(-c3ccc(-c4ccc(OCC(CCCC)CCCCCC)cc4)cc3)cc2)cc1` (centres undefined), the mutagenic call is “inactive; negative” (Test System: AMES SALMONELLA TYPHIMURIUM, Strain/Indicator: TA1538, Metabolic Activation: NONE, Method: STANDARD PLATE) and “inactive; negative” (Test System: AMES SALMONELLA TYPHIMURIUM, Strain/Indicator: TA1538, Metabolic Activation: RAT, LIVER, S-9, AROCLOR 1254, Method: STANDARD PLATE).

With `CN(C)CCNC(=O)c1ccc2nc3ccccc3c(N)c2c1`, the mutagenic call (Test System: AMES SALMONELLA TYPHIMURIUM, Strain/Indicator: TA1537, Metabolic Activation: NONE, Method: STANDARD PLATE) is “inactive; negative”.

`COc1cc(C(C)=O)cc(OC)c1O`: the mutagenic call runs as follows: under setting [2], “inactive; negative”; (Test System: AMES SALMONELLA TYPHIMURIUM, Strain/Indicator: TA97, Metabolic Activation: RAT, LIVER, S-9, AROCLOR 1254, Method: PREINCUBATION) “inactive; negative”; under setting [3], “inactive; negative”; (Test System: AMES SALMONELLA TYPHIMURIUM, Strain/Indicator: TA98, Metabolic Activation: RAT, LIVER, S-9, AROCLOR 1254, Method: PREINCUBATION) “inactive; negative”; under setting [4], “inactive; negative”; (Test System: AMES SALMONELLA TYPHIMURIUM, Strain/Indicator: TA100, Metabolic Activation: RAT, LIVER, S-9, AROCLOR 1254, Method: PREINCUBATION) “inactive; negative”. For the same molecule, the mutagenic call runs as follows: (Test System: AMES SALMONELLA TYPHIMURIUM, Strain/Indicator: TA102, Metabolic Activation: NONE, Method: PREINCUBATION) “inactive; negative”; (Test System: AMES SALMONELLA TYPHIMURIUM, Strain/Indicator: TA102, Metabolic Activation: RAT, LIVER, S-9, AROCLOR 1254, Method: PREINCUBATION) “inactive; negative”.

As to `Nc1cc(Cl)ccc1Cl`, the mutagenic call reads like this: (Test System: AMES SALMONELLA TYPHIMURIUM, Strain/Indicator: TA97, Metabolic Activation: HAMSTER, LIVER, S-9, AROCLOR 1254 (10%), Method: PREINCUBATION) “inactive; negative”; (Test System: AMES SALMONELLA TYPHIMURIUM, Strain/Indicator: TA97, Metabolic Activation: HAMSTER, LIVER, S-9, AROCLOR 1254 (30%), Method: PREINCUBATION) “inactive; negative”; under setting [2], “inactive; negative”; (Test System: AMES SALMONELLA TYPHIMURIUM, Strain/Indicator: TA97, Metabolic Activation: RAT, LIVER, S-9, AROCLOR 1254 (10%), Method: PREINCUBATION) “inactive; negative”; (Test System: AMES SALMONELLA TYPHIMURIUM, Strain/Indicator: TA97, Metabolic Activation: RAT, LIVER, S-9, AROCLOR 1254 (30%), Method: PREINCUBATION) “inactive; negative”; (Test System: AMES SALMONELLA TYPHIMURIUM, Strain/Indicator: TA98, Metabolic Activation: HAMSTER, LIVER, S-9, AROCLOR 1254 (10%), Method: PREINCUBATION) “inactive; negative”. Moreover, the mutagenic call (Test System: AMES SALMONELLA TYPHIMURIUM, Strain/Indicator: TA98, Metabolic Activation: HAMSTER, LIVER, S-9, AROCLOR 1254 (30%), Method: PREINCUBATION) is “inactive; negative”; the mutagenic call under setting [3] is “inactive; negative”; the mutagenic call (Test System: AMES SALMONELLA TYPHIMURIUM, Strain/Indicator: TA98, Metabolic Activation: RAT, LIVER, S-9, AROCLOR 1254 (10%), Method: PREINCUBATION) was “inactive; negative”; the mutagenic call (Test System: AMES SALMONELLA TYPHIMURIUM, Strain/Indicator: TA98, Metabolic Activation: RAT, LIVER, S-9, AROCLOR 1254 (30%), Method: PREINCUBATION) is “inactive; negative”; the mutagenic call (Test System: AMES SALMONELLA TYPHIMURIUM, Strain/Indicator: TA100, Metabolic Activation: HAMSTER, LIVER, S-9, AROCLOR 1254 (10%), Method: PREINCUBATION) was “inactive; negative”; the mutagenic call (Test System: AMES SALMONELLA TYPHIMURIUM, Strain/Indicator: TA100, Metabolic Activation: HAMSTER, LIVER, S-9, AROCLOR 1254 (30%), Method: PREINCUBATION) is “inactive; negative”. The mutagenic call under setting [4] was “inactive; negative”; the mutagenic call (Test System: AMES SALMONELLA TYPHIMURIUM, Strain/Indicator: TA100, Metabolic Activation: RAT, LIVER, S-9, AROCLOR 1254 (10%), Method: PREINCUBATION) is “inactive; negative”; the mutagenic call (Test System: AMES SALMONELLA TYPHIMURIUM, Strain/Indicator: TA100, Metabolic Activation: RAT, LIVER, S-9, AROCLOR 1254 (30%), Method: PREINCUBATION) was “inactive; negative”; the mutagenic call (Test System: AMES SALMONELLA TYPHIMURIUM, Strain/Indicator: TA1535, Metabolic Activation: HAMSTER, LIVER, S-9, AROCLOR 1254 (10%), Method: PREINCUBATION) is “inactive; negative”; the mutagenic call (Test System: AMES SALMONELLA TYPHIMURIUM, Strain/Indicator: TA1535, Metabolic Activation: HAMSTER, LIVER, S-9, AROCLOR 1254 (30%), Method: PREINCUBATION) was “inactive; negative”; the mutagenic call (Test System: AMES SALMONELLA TYPHIMURIUM, Strain/Indicator: TA1535, Metabolic Activation: NONE, Method: PREINCUBATION) is “inactive; negative”. The mutagenic call by setting is: (Test System: AMES SALMONELLA TYPHIMURIUM, Strain/Indicator: TA1535, Metabolic Activation: RAT, LIVER, S-9, AROCLOR 1254 (10%), Method: PREINCUBATION) “inactive; negative”; (Test System: AMES SALMONELLA TYPHIMURIUM, Strain/Indicator: TA1535, Metabolic Activation: RAT, LIVER, S-9, AROCLOR 1254 (30%), Method: PREINCUBATION) “inactive; negative”; (Test System: UDS RODENT HEPATOCYTES, Strain/Indicator: THY INCORP (NON-S-PHASE), Metabolic Activation: NONE, Method: AUTORADIOGRAPHY) “inactive; negative”.

These data come from PubChem BioAssay AID1259407 (Chemical Carcinogenesis Research Information System (CCRIS), 2018).
